Measurements as given in patent publication US11999727B2 (Tango Therapeutics, Inc., priority 2020, dated 2024).

Key:
PRMT5 [1] = biological target: T1, PRMT5 (Homo sapiens, UniProt O14744); test: PRMT5 biochemical IC50 assay with MTA as cofactor; details: PRMT5, MTA as cofactor; read-out: MTA IC50
T1 construct: purchased Viva (custom protein)

[2] = test system: HAP1 MTAP-deleted cell line; test: Viability assay, MTAP-deleted cell line; type: cell-based; details: Homo sapiens, HAP1, viability, HAP1 MTAP-deleted cell line; read-out: HAP1 MTAP deleted viability
Excerpt: Table 1 additionally indicates IC50 values in a viability assay for the MTAP-deleted cell line (column 10), indicating the effect of treatment with compound on cell survival.

PRMT5 [3] = biological target: T1, PRMT5; test: PRMT5 biochemical IC50 assay with no cofactor; details: PRMT5, no cofactor; read-out: No Cofactor/ rel IC50
Excerpt: Table 1 indicates IC50 values (μM) against PRMT5 for exemplary compounds in the presence of SAM as cofactor, with no cofactor, and with MTA as cofactor, respectively (columns 4-6). […] Ki values can be calculated from the IC50 values as described in the Examples section. As detailed in the Examples section, for the assay performed in the presence of SAM, IC50=Ki×1.5 (Ki=IC50/1.5).

PRMT5 [4] = biological target: T1, PRMT5; test: PRMT5 biochemical IC50 assay with SAM as cofactor; details: PRMT5, SAM as cofactor; read-out: SAM IC50
[5] = test system: HAP1 MTAP-intact cell line; test: SDMA in-cell western assay, HAP1 MTAP-intact; type: cell-based; details: Homo sapiens, HAP1, SDMA in-cell western, HAP1 MTAP-intact; read-out: MTAP HAP1 intact IC50
In short: (§1)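 IC50 values come from SDMA signal quantified by in-cell western in two HAP1 lines, one with native MTAP levels and one lacking MTAP.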

[6] = test system: HAP1 MTAP-deleted cell line; test: SDMA in-cell western assay, HAP1 MTAP-deleted; type: cell-based; details: for IC50: Homo sapiens, HAP1, SDMA in-cell western, HAP1 MTAP-deleted, read-out: HAP 1 MTAP deleted IC50; for MTAP intact/deleted ratio: IC50 ratio HAP1 MTAP-intact / HAP1 MTAP-deleted, SDMA in-cell western
In short: as §1

T1 sequence (O14744 whole entry): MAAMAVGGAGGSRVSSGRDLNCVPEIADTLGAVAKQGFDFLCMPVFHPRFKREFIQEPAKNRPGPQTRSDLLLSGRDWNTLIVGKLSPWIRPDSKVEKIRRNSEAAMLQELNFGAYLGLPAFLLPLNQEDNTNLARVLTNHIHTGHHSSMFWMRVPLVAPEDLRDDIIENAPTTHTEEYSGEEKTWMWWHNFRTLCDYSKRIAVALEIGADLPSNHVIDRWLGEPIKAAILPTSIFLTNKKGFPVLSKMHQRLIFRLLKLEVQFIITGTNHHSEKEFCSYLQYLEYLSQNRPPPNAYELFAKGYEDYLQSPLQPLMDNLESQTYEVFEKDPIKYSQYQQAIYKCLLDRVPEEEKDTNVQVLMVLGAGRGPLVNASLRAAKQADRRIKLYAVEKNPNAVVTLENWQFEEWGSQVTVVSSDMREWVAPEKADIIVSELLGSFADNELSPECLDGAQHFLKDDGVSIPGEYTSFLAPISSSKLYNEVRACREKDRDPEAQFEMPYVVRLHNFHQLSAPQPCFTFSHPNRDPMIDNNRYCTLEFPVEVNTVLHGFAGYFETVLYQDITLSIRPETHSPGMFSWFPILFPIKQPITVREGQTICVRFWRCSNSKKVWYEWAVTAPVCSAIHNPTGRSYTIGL
T1 sequence (Q9BQA1 whole entry partner): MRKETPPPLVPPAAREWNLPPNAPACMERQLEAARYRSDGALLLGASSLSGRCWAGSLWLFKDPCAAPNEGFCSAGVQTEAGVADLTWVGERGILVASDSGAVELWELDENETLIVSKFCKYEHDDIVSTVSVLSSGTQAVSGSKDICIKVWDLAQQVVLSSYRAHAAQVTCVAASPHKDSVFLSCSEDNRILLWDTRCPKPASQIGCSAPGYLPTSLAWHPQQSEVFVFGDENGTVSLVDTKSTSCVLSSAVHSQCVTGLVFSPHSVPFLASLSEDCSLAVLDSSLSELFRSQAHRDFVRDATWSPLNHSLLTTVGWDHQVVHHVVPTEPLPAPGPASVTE

IC50 (PRMT5 [1]) [nM]	IC50 (PRMT5 [3]) [nM]	IC50 (PRMT5 [4]) [nM]	IC50 [5] [nM]	IC50 [6] [nM]	Structure (SMILES)	IC50 [2] [nM]	MTAP intact/deleted ratio [6]
< 50	< 50	< 50	< 100	< 100	CCc1cc(NC(=O)C(=O)N2C[C@@H](C)CC[C@@H]2c2ccc3sc(C4CCN(C5CC5)CC4)nc3c2)cnc1N [Compound 1330, N-(6-amino-5-ethylpyridin-3-yl)-2-((2R,5S)-2-(2-(1-cyclopropylpiperidin-4-yl)benzo[d]thiazol-5-yl)-5-methylpiperidin-1-yl)-2-oxoacetamide]	< 1000	A (an IC50 ratio greater than or equal to 10 fold)
< 50	< 50	< 50	< 100	< 100	CCN1CCC(c2nc3cc([C@H]4CC[C@H](C)CN4C(=O)C(=O)Nc4cnc(N)c(C)c4)ccc3s2)CC1 [Compound 1335, N-(6-amino-5-methylpyridin-3-yl)-2-((2R,5S)-2-(2-(1-ethylpiperidin-4-yl)benzo[d]thiazol-5-yl)-5-methylpiperidin-1-yl)-2-oxoacetamide]	< 1000	A (an IC50 ratio greater than or equal to 10 fold)
< 50	< 50	< 50	< 100	< 100	CCc1cc(NC(=O)C(=O)N2C[C@@H](C)CC[C@@H]2c2ccc3sc([C@H]4C[C@@H]5CN(C)C[C@@H]5C4)nc3c2)cnc1N [Compound 1338, N-(6-amino-5-ethylpyridin-3-yl)-2-((2R,5S)-5-methyl-2-(2-((3aR,5r,6aS)-2-methyloctahydrocyclopenta[c]pyrrol-5-yl)benzo[d]thiazol-5-yl)piperidin-1-yl)-2-oxoacetamide]	< 1000	A (an IC50 ratio greater than or equal to 10 fold)
< 50	< 50	50 to 500	< 100	< 100	CCc1cc(NC(=O)C(=O)N2C[C@@H](C)CC[C@@H]2c2ccc3sc(C4CC(C)(C)N(C)C(C)(C)C4)nc3c2)cnc1N [Compound 1340, N-(6-amino-5-ethylpyridin-3-yl)-2-((2R,5)-5-methyl-2-(2-(1,2,2,6,6-pentamethylpiperidin-4-yl)benzo[d]thiazol-5-yl)piperidin-1-yl)-2-oxoacetamide]	< 1000	A (an IC50 ratio greater than or equal to 10 fold)
< 50	< 50	50 to 500	> 1000	< 100	COc1ncc(NC(=O)C(=O)N2C[C@@H](C)CC[C@@H]2c2ccc(CCN(C)C)c(Cl)c2)cc1C(N)=O [Compound 1341, 5-(2-((2R,5S)-2-(3-chloro-4-(2-(dimethylamino)ethyl)phenyl)-5-methylpiperidin-1-yl)-2-oxoacetamido)-2-methoxynicotinamide]	< 1000	–
< 50	< 50	< 50	100 to 1000	< 100	CCc1cc(NC(=O)C(=O)N2C[C@@H](C)CC[C@@H]2c2cccc([C@H]3CCN(C)C3)c2)cnc1N [Compound 1342, N-(6-amino-5-ethylpyridin-3-yl)-2-((2R,5S)-5-methyl-2-(3-(1-methylpyrrolidin-3-yl)phenyl)piperidin-1-yl)-2-oxoacetamide]	< 1000	A (an IC50 ratio greater than or equal to 10 fold)
< 50	< 50	50 to 500	< 100	< 100	CCc1cc(NC(=O)C(=O)N2C[C@@H](C)CC[C@@H]2c2ccc3sc(C4(CN(C)C)CC4)nc3c2)cnc1N [Compound 1347, N-(6-amino-5-ethylpyridin-3-yl)-2-((2R,5S)-2-(2-(1-((dimethylamino)methyl)cyclopropyl)benzo[d]thiazol-5-yl)-5-methylpiperidin-1-yl)-2-oxoacetamide]	< 1000	A (an IC50 ratio greater than or equal to 10 fold)
< 50	< 50	< 50	< 100	< 100	CCc1cc(NC(=O)C(=O)N2C[C@@H](C)CC[C@@H]2c2cccc(OCC3CCN(C)CC3)c2)cnc1N [Compound 1348, N-(6-amino-5-ethylpyridin-3-yl)-2-((2R,5S)-5-methyl-2-(3-((1-methylpiperidin-4-yl)methoxy)phenyl)piperidin-1-yl)-2-oxoacetamide]	< 1000	A (an IC50 ratio greater than or equal to 10 fold)
< 50	< 50	< 50	> 1000	< 100	COc1ncc(NC(=O)C(=O)N2C[C@@H](C)CC[C@@H]2c2cccc(OCCN(C)C)c2)cc1C(N)=O [Compound 1352, 5-(2-((2R,5S)-2-(3-(2-(dimethylamino)ethoxy)phenyl)-5-methylpiperidin-1-yl)-2-oxoacetamido)-2-methoxynicotinamide]	< 1000	–
< 50	< 50	50 to 500	< 100	< 100	C[C@H]1CC[C@H](c2ccc3sc(CN(C)C)nc3c2)N(C(=O)C(=O)Nc2cnc(N)c(C3CC3)c2)C1 [Compound 1354, N-(6-Amino-5-cyclopropyl-3-pyridyl)-2-[(2R,5S)-2-[2-[(dimethylamino)methyl]-1,3-benzothiazol-5-yl]-5-methyl-1-piperidyl]-2-oxo-acetamide]	< 1000	A (an IC50 ratio greater than or equal to 10 fold)
< 50	< 50	< 50	< 100	< 100	COc1ncc(NC(=O)C(=O)N2C[C@@H](C)CC[C@@H]2c2ccc3sc([C@H]4CCCN(C)C4)nc3c2)cc1C(N)=O [Compound 1359, 2-methoxy-5-(2-((2R,5S)-5-methyl-2-(2-((S)-1-methylpiperidin-3-yl)benzo[d]thiazol-5-yl)piperidin-1-yl)-2-oxoacetamido)nicotinamide]	< 1000	A (an IC50 ratio greater than or equal to 10 fold)
< 50	< 50	50 to 500	100 to 1000	< 100	CCc1cc(NC(=O)C(=O)N2C[C@@H](C)CC[C@@H]2c2cccc(OC[C@@H]3CCCN3C)c2)cnc1N [Compound 1362, N-(6-amino-5-ethylpyridin-3-yl)-2-((2R,5S)-5-methyl-2-(3-((1-methylpyrrolidin-2-yl)methoxy)phenyl)piperidin-1-yl)-2-oxoacetamide]	< 1000	A (an IC50 ratio greater than or equal to 10 fold)
< 50	< 50	< 50	100 to 1000	< 100	CCc1cc(NC(=O)C(=O)N2C[C@@H](C)CC[C@@H]2c2cccc(C3CCN(C)CC3)c2)cnc1N [Compound 1363, N-(6-Amino-5-ethyl-3-pyridyl)-2-oxo-2-[(2R,5S)-5-methyl-2-[3-(1-methyl-4-piperidyl)phenyl]-1-piperidyl]acetamide]	< 1000	A (an IC50 ratio greater than or equal to 10 fold)
< 50	< 50	50 to 500	< 100	< 100	CCc1cc(NC(=O)C(=O)N2C[C@@H](C)CC[C@@H]2c2ccc3ccc(C4CCN(C)CC4)nc3c2)cnc1N [Compound 1365, N-(6-amino-5-ethyl-3-pyridyl)-2-oxo-2-[(2R,5S)-5-methyl-2-[2-(1-methyl-4-piperidyl)-7-quinolyl]-1-piperidyl]acetamide]	< 1000	A (an IC50 ratio greater than or equal to 10 fold)
< 50	< 50	< 50	< 100	< 100	CCc1cc(NC(=O)C(=O)N2C[C@@H](C)CC[C@@H]2c2ccc3sc([C@@H]4[C@@H]5CN(C)C[C@@H]54)nc3c2)cnc1N [Compound 1366, N-(6-amino-5-ethylpyridin-3-yl)-2-((2R,5S)-5-methyl-2-(2-((1R,5S,6s)-3-methyl-3-azabicyclo[3.1.0]hexan-6-yl)benzo[d]thiazol-5-yl)piperidin-1-yl)-2-oxoacetamide]	< 1000	A (an IC50 ratio greater than or equal to 10 fold)
< 50	< 50	< 50	100 to 1000	< 100	CCc1cc(NC(=O)C(=O)N2C[C@@H](C)CC[C@@H]2c2cccc(N3CCN(C)CC3)c2)cnc1N [Compound 1367, N-(6-amino-5-ethylpyridin-3-yl)-2-((2R,5S)-5-methyl-2-(3-(4-methylpiperazin-1-yl)phenyl)piperidin-1-yl)-2-oxoacetamide]	< 1000	A (an IC50 ratio greater than or equal to 10 fold)
